In experiment [1] the test system is neurons from hippocampi of E18 rat embryos. As to the kind of experiment: Neurite growth length (% NTL) in cultured E18 rat hippocampal neurons, 9-point dose response, 48 hours. It counts as cell-based. Particulars: Rattus norvegicus, Neuron, 48 h; for activity at 0.078 µM: 78 nM; for activity at 0.156 µM: 156 nM; for activity at 0.312 µM: 312 nM; for activity at 0.625 µM: 625 nM. In a few lines:
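Dissociated E18 rat hippocampal neurons at 1500 cells/well on PDL were exposed 48 h to 9 concentrations from 20 μM down to 0.078125 μM. After PFA fixation and βIII-tubulin/Hoechst staining, ArrayScan imaging traced neurites in at least 200–300 neurons per condition to give % NTL.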

Experiment [2] concerns Primary Neurons. As to the kind of experiment: HCS neurite outgrowth assay (High Content Screening with Primary Neurons). The class given is cell-based. The settings on record: Primary neuron.

Where only a bound is given, the exact number is not on record here.

As a reminder, the EC50 is the concentration that produces a half-maximal response. Turning to `COc1ccc(OC)c(C(=O)c2ccc(C(=O)NCCNC(=O)c3ccncc3)cc2)c1F` [Example A26, 4-(2-fluoro-3,6-dimethoxybenzoyl)-N-{2-[(pyridin-4-yl)formamido]ethyl}benzamide], in experiment [1], the activity at 0.078 µM turned out to be 93.3%, the activity at 0.156 µM came out at 99.2%, the activity at 0.312 µM turned out to be 94.2% and the activity at 0.625 µM is 99.3%. For the same compound, in experiment [1], the activity at 1.25 µM came to 93.5%, the activity at 2.5 µM was determined as 99.9%, the activity at 5 µM worked out at 102% and the activity at 10 µM was determined as 97.8%. The activity at 20 µM in experiment [1] was 117%. Also, the EC50 in experiment [2] was greater than 20 µM.

`COc1ccc(O)c(C(=O)c2ccc(C(=O)NCCNC(=O)c3ccncc3)cc2)c1F` [Example A27, 4-(2-fluoro-6-hydroxy-3-methoxybenzoyl)-N-{2-[(pyridin-4-yl)formamido]ethyl}benzamide]: in experiment [1], the activity at 0.078 µM amounted to 103%, the activity at 0.156 µM worked out at 101%, the activity at 0.312 µM was 107% and the activity at 0.625 µM turned out to be 118%. Further, in experiment [1], the activity at 1.25 µM was determined as 110%, the activity at 2.5 µM came to 105%, the activity at 5 µM was 117% and the activity at 10 µM was 141%. Further, in experiment [1], the activity at 20 µM was 150%. This compound registered an EC50 in experiment [2] of 7.9 µM.

Consider `COc1ccc(OC)c(C(=O)c2ccc(C(=O)O[C@@H]3CN(C)C[C@H]3NC(=O)c3ccncc3)cc2)c1F` [Example A28, (3R,4R)-1-methyl-4-(pyridine-4-amido)pyrrolidin-3-yl 4-(2-fluoro-3,6-dimethoxybenzoyl)benzoate], for which, in experiment [1], the activity at 0.078 µM is 97.8%, the activity at 0.156 µM turned out to be 113%, the activity at 0.312 µM was determined as 103% and the activity at 0.625 µM came to 83.7%. Moreover, in experiment [1], the activity at 1.25 µM came out at 103%, the activity at 2.5 µM is 118%, the activity at 5 µM stood at 133% and the activity at 10 µM was found to be 137%. Moreover, in experiment [1], the activity at 20 µM was 139%. Besides, the EC50 in experiment [2] was found to be 4.72 µM.

Regarding `COc1ccc(OC)c(C(=O)c2ccc(C(=O)O[C@@H]3CCN(C)C[C@H]3NC(=O)c3ccncc3)cc2)c1F` [Example A30, (3R,4R)-1-methyl-3-(pyridine-4-amido)piperidin-4-yl 4-(2-fluoro-3,6-dimethoxybenzoyl)benzoate], in experiment [1], the activity at 0.078 µM amounted to 93.1%, the activity at 0.156 µM was found to be 89.7%, the activity at 0.312 µM is 90.5% and the activity at 0.625 µM turned out to be 83.5%. In experiment [1], the activity at 1.25 µM amounted to 93.8%, the activity at 2.5 µM came to 94.8%, the activity at 5 µM is 103% and the activity at 10 µM came out at 107%. Further, the activity at 20 µM in experiment [1] was 117%. This compound also gave an EC50 in experiment [2] of 4.92 µM.

With `COc1ccc(O)c(C(=O)c2ccc(C(=O)O[C@@H]3CCNC[C@H]3NC(=O)c3ccncc3)cc2)c1F` [Example A31, (3R,4R)-3-(pyridine-4-amido)piperidin-4-yl 4-(2-fluoro-6-hydroxy-3-methoxybenzoyl)benzoate], in experiment [1], the activity at 0.078 µM is 122%, the activity at 0.156 µM worked out at 120%, the activity at 0.312 µM worked out at 118% and the activity at 0.625 µM worked out at 115%. Also, in experiment [1], the activity at 1.25 µM came to 136%, the activity at 2.5 µM is 140%, the activity at 5 µM came out at 151% and the activity at 10 µM came to 142%. Further, in experiment [1], the activity at 20 µM was determined as 137%. In addition, in experiment [2], the concentration giving a half-maximal response (EC50) was determined as 1.15 µM.

For `COc1ccc(OC)c(C(=O)c2ccc(C(=O)N[C@@H]3CN(C)C[C@H]3NC(=O)c3ccncc3)cc2)c1F` [Example A33, N-[(3R,4R)-4-[4-(2-fluoro-3,6-dimethoxybenzoyl)benzamido]-1-methylpyrrolidin-3-yl]pyridine-4-carboxamide], in experiment [1], the activity at 0.078 µM is 108%, the activity at 0.156 µM stood at 106%, the activity at 0.312 µM worked out at 99.3% and the activity at 0.625 µM came out at 107%. Further, in experiment [1], the activity at 1.25 µM was 115%, the activity at 2.5 µM worked out at 129%, the activity at 5 µM stood at 142% and the activity at 10 µM was 159%. For the same compound, the activity at 20 µM in experiment [1] worked out at 207%. The compound further displayed an EC50 in experiment [2] greater than 20 µM.

With `COc1ccc(O)c(C(=O)c2ccc(C(=O)N[C@@H]3CNC[C@H]3NC(=O)c3ccc4c(c3)CC(=O)N4)cc2)c1F` [Example A35, N-[(3R,4R)-4-[4-(2-fluoro-6-hydroxy-3-methoxybenzoyl)benzamido]pyrrolidin-3-yl]-2-oxo-2,3-dihydro-1H-indole-5-carboxamide], in experiment [1], the activity at 0.078 µM came to 91.8%, the activity at 0.156 µM was determined as 90.1%, the activity at 0.312 µM was 86.3% and the activity at 0.625 µM was found to be 89.3%. Besides, in experiment [1], the activity at 1.25 µM came out at 86.9%, the activity at 2.5 µM stood at 95%, the activity at 5 µM worked out at 97.2% and the activity at 10 µM is 96.7%. The activity at 20 µM in experiment [1] turned out to be 107%. The compound further showed an EC50 in experiment [2] of 0.163 µM.

On to `COc1ccc(O)c(C(=O)c2ccc(C(=O)N[C@@H]3CNC[C@H]3NC(=O)c3ccnc(N)n3)cc2)c1F` [Example A36, 2-amino-N-[(3R,4R)-4-[4-(2-fluoro-6-hydroxy-3-methoxybenzoyl)benzamido]pyrrolidin-3-yl]pyrimidine-4-carboxamide], for which, in experiment [1], the activity at 0.078 µM came to 116%, the activity at 0.156 µM was found to be 126%, the activity at 0.312 µM amounted to 131% and the activity at 0.625 µM worked out at 149%. For the same compound, in experiment [1], the activity at 1.25 µM turned out to be 239%, the activity at 2.5 µM worked out at 358%, the activity at 5 µM was found to be 516% and the activity at 10 µM came to 480%. Moreover, the activity at 20 µM in experiment [1] came out at 470%. In addition, the concentration for a half-maximal effect (EC50) in experiment [2] came to 1.83 µM.

`COc1ccc(O)c(C(=O)c2ccc(C(=O)N[C@@H]3CNC[C@H]3NC(=O)c3ccc(O)cc3)cc2)c1F` [Example A37, N-[(3R,4R)-4-[4-(2-fluoro-6-hydroxy-3-methoxybenzoyl)benzamido]pyrrolidin-3-yl]-4-hydroxybenzamide]: in experiment [1], the activity at 0.078 µM stood at 100%, the activity at 0.156 µM is 109%, the activity at 0.312 µM was 113% and the activity at 0.625 µM is 107%. Besides, in experiment [1], the activity at 1.25 µM was 113%, the activity at 2.5 µM came out at 124%, the activity at 5 µM is 132% and the activity at 10 µM worked out at 155%. In addition, the activity at 20 µM in experiment [1] turned out to be 212%. In addition, the EC50 in experiment [2] was greater than 20 µM.

On to `COc1ccc(O)c(C(=O)c2ccc(C(=O)N[C@@H]3CNC[C@H]3NC(=O)c3cccnc3)cc2)c1F` [Example A38, N-[(3R,4R)-4-[4-(2-fluoro-6-hydroxy-3-methoxybenzoyl)benzamido]pyrrolidin-3-yl]pyridine-3-carboxamide], for which, in experiment [1], the activity at 0.078 µM came to 108%, the activity at 0.156 µM amounted to 102%, the activity at 0.312 µM was determined as 103% and the activity at 0.625 µM was 96.6%. For the same compound, in experiment [1], the activity at 1.25 µM stood at 100%, the activity at 2.5 µM worked out at 100%, the activity at 5 µM was 106% and the activity at 10 µM came to 100%. Besides, the activity at 20 µM in experiment [1] is 87.7%. In addition, a half-maximal response in experiment [2] (EC50) required 3.15 µM.

On to `COc1ccc(O)c(C(=O)c2ccc(C(=O)N[C@@H]3CNC[C@H]3NC(=O)c3ccc(O)nc3)cc2)c1F` [Example A39, N-[(3R,4R)-4-[4-(2-fluoro-6-hydroxy-3-methoxybenzoyl)benzamido]pyrrolidin-3-yl]-6-hydroxypyridine-3-carboxamide], for which, in experiment [1], the activity at 0.078 µM stood at 96.3%, the activity at 0.156 µM was 93%, the activity at 0.312 µM stood at 85.5% and the activity at 0.625 µM was determined as 80.5%. Also, in experiment [1], the activity at 1.25 µM turned out to be 83%, the activity at 2.5 µM came to 87.3%, the activity at 5 µM was found to be 98% and the activity at 10 µM was 98.9%. In addition, the activity at 20 µM in experiment [1] came to 101%. In experiment [2], this compound had an EC50 of 3.76 µM.

With `COc1ccc(O)c(C(=O)c2ccc(C(=O)N[C@@H]3CNC[C@H]3NC(=O)c3ccnc(O)c3)cc2)c1F` [Example A40, N-[(3R,4R)-4-[4-(2-fluoro-6-hydroxy-3-methoxybenzoyl)benzamido]pyrrolidin-3-yl]-2-hydroxypyridine-4-carboxamide], in experiment [1], the activity at 0.078 µM is 86.3%, the activity at 0.156 µM amounted to 91.2%, the activity at 0.312 µM amounted to 86.2% and the activity at 0.625 µM came out at 86.2%. In addition, in experiment [1], the activity at 1.25 µM was 94.1%, the activity at 2.5 µM was 108%, the activity at 5 µM was found to be 101% and the activity at 10 µM came out at 106%. For the same compound, the activity at 20 µM in experiment [1] stood at 121%. In addition, a half-maximal effect in experiment [2] (EC50) was put at 9.62 µM.

Turning to `COc1ccc(O)c(C(=O)c2ccc(C(=O)N[C@@H]3CNC[C@H]3NC(=O)c3ccncn3)cc2)c1F` [Example A41, N-[(3R,4R)-4-[4-(2-fluoro-6-hydroxy-3-methoxybenzoyl)benzamido]pyrrolidin-3-yl]pyrimidine-4-carboxamide], in experiment [1], the activity at 0.078 µM was 91.3%, the activity at 0.156 µM stood at 88.5%, the activity at 0.312 µM stood at 86.2% and the activity at 0.625 µM turned out to be 87%. Further, in experiment [1], the activity at 1.25 µM worked out at 95.9%, the activity at 2.5 µM was 102%, the activity at 5 µM was 124% and the activity at 10 µM came to 152%. The activity at 20 µM in experiment [1] worked out at 190%. Further, the EC50 in experiment [2] came to 11 µM.

Values taken from patent US11926613B2, “Kinase inhibitors for the treatment of central and peripheral nervous system disorders” (UNIVERSITY OF MIAMI, priority 2017, dated 2024).
